Test results published in US20060106099A1, “Novel inhibitors of ubiquitin isopeptidases” (priority 2002, published 2006).
Like-named read-outs stand apart in the source and are kept apart here.

Columns and labels:
HCT 116 −/− cells = experiment: MTT cell viability assay, HCT 116 p53 −/− cells; settings: read-out: Cytotoxic Potency (EC50) HCT −/−; 48 h, MTT
Description: (§2) Cell viability was measured with MTT reagent as described in materials and methods.
(§3) Cell viability was detected by the MTT assay. Briefly, 1×10^5 cells were incubated per well of a sterile, 96-well assay plate with 0-60 μM of test compounds for 48 hours. MTT reagent was added to each well, final concentration of 0.5 mg/mL, and incubated for an additional 3 hours. The media was aspirated and remaining MTT reagent from each well and added 100 μL of HCl:isopropanol (1:24). The absorbance of each sample was measured at 405 nm.

HCT 116 +/+ cells [1] = experiment: MTT cell viability assay, HCT 116 p53 +/+ cells; settings: 48 h, MTT; for cell death in HCT 116 +/+ compared with HCT 116 −/− cells: isogenic pair
RKO-E6 cells [2] = test system: RKO-E6 cells
Description: as §2, §3

RKO-E6 cells [3] = experiment: MTT cell viability assay, RKO-E6 cells; settings: cell viability assay at 48 h, RKO-E6 cells
Description: as §2, §3

ubiquitin isopeptidases [4] = experiment: Ubiquitin isopeptidase activity, Ub-PEST substrate, lysates of treated RKO and HCT 116 cells; assay type: cell-based, human; settings: cells treated 6, 20 or 60 μM, 12 h
Outline: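 RKO and HCT 116 cells (6×10^5) were treated with 0–60 μM compound for 12 h at 37 °C, then lysed in HEPES/EDTA/CHAPS/5 mM ATP, pH 7.5. Lysates at 0.3 mg/mL protein were incubated with 50 μg/mL Ub-PEST for 45 min at 25 °C. Released 8.5 kDa ubiquitin was quantified by anti-ubiquitin western blot densitometry relative to vehicle (100%).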

p53 = p53 accumulation, ratio RKO-E6 cells/RKO cells (immunoblot, densitometry); assay type: cell-based, human; settings: 6 h; etoposide 50 μM, MG115, NSC-302979, DBA 20 μM, others 60 μM
Outline: (§1)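 RKO-E6 cells exposed at 37° C for 6, 12 or 24 h to compound concentrations giving 80% cell death at 48 h; for p53, RKO and RKO-E6 cells treated 6 h. Lysates (12.5 μg protein) immunoblotted for ubiquitin or p53 with ECL detection; p53 quantified by densitometry as RKO-E6/RKO ratio.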

[5] = test system: polyubiquitin conjugates in RKO-E6 cells; experiment: Accumulation of polyubiquitin in RKO-E6 cells (immunoblot); assay type: cell-based, human; settings: EC80 or 60 μM, 6-24 h
Outline: as §1

ubiquitin isopeptidases [6] = experiment: Ubiquitin isopeptidase activity, z-LRGG-AMC substrate, lysates of treated RKO and HCT 116 cells; assay type: cell-based, human; settings: cells treated 6, 20 or 60 μM, 12 h
Outline: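 RKO and HCT 116 cells were treated 12 h at 37° C with 6, 20 or 60 μM compound. Lysates at 0.5 mg/mL were pre-incubated with 30 μM MG115 (30 min, 4° C) to block proteasome, then given z-LRGG-AMC for 3 h at 37° C. Cleaved AMC was read fluorometrically.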

RKO cells = experiment: MTT cell viability assay, RKO cells; settings: for cell death in RKO compared with RKO-E6 cells: 48 h, MTT, isogenic pair
Description: as §2, §3

[7] = cited from earlier work
HCT 116 +/+ cells [8] = test system: HCT 116 +/+ cells

## C=C1C(=O)C2=CC1CCC(=O)C1(C)CCC(OC(C)=O)C(C)(C)C1CC2O (stereo not drawn) [NSC-302979, shikoccin]
HCT 116 −/− cells
  EC50: 3.2 ± 0.2 µM
HCT 116 +/+ cells [1]
  cell death in HCT 116 +/+ compared with HCT 116 −/− cells: caused cell death with equal potency
HCT 116 +/+ cells [1]; read-out: Cytotoxic Potency (EC50) HCT +/+
  EC50: 2.7 ± 0.2 µM
RKO-E6 cells [2]
  EC50: 1.4 ± 0.1 µM
RKO-E6 cells [3]
  EC80, concentration that gave 80% cell death: 3.5 µM
Ubiquitin isopeptidases [4]
  inhibition of isopeptidase cleavage of Ub-PEST: inhibited isopeptidase activity in a concentration dependent manner
p53
  ratio of p53 protein [RKO-E6 cells/RKO cells]: approached unity
[5]
  cellular accumulation of polyubiquitin conjugates: protein species with polyubiquitin conjugation accumulated in cells
Ubiquitin isopeptidases [6]
  inhibition of z-LRGG-AMC hydrolysis by ubiquitin isopeptidases: inhibited ubiquitin isopeptidase activity
RKO cells
  cell death in RKO compared with RKO-E6 cells: caused cell death with equal potency and efficacy

## CCCCC[C@H](O)C/C=C1/C(=O)C=C[C@@H]1C/C=C\CCCC(=O)O [Δ12-PGJ2, Δ12-prostaglandin J2]
HCT 116 +/+ cells [1]
  cell death in HCT 116 +/+ compared with HCT 116 −/− cells: caused cell death with equal potency
RKO-E6 cells [2]
  EC50: 9.2 ± 1 µM
RKO-E6 cells [3]
  EC80, concentration that gave 80% cell death: 13.2 µM
Ubiquitin isopeptidases [4]
  inhibition of isopeptidase cleavage of Ub-PEST: inhibited isopeptidase activity in a concentration dependent manner
p53
  ratio of p53 protein [RKO-E6 cells/RKO cells]: approached unity
[5]
  cellular accumulation of polyubiquitin conjugates: protein species with polyubiquitin conjugation accumulated in cells
[7]
  t1/2 of metabolism to an inactive compound in serum: < 5 min
Ubiquitin isopeptidases [6]
  inhibition of z-LRGG-AMC hydrolysis by ubiquitin isopeptidases: inhibited ubiquitin isopeptidase activity
RKO cells
  cell death in RKO compared with RKO-E6 cells: caused cell death with equal potency and efficacy
RKO cells; read-out: EC50 in RKO cell lines, prostaglandins for comparison, comparison values in the text
  EC50: 9 µM
HCT 116 +/+ cells [8]
  EC50: 3.6 ± 0.3 µM
